According to patent US5866717A, “Metalloproteinase inhibitors” (British Biotech Pharmaceuticals Limited, priority 1994, dated 1999):
Converted amounts (≈) assume the structure as drawn.

Tests used:
[1] = aqueous solubility; format: physicochemical; settings: for solubility: water, read-out: Aq. solubility
[2] = biological target: T1, Getatinase A (Homo sapiens, UniProt P08253); assay: biochemical
T1 sequence (P08253 110-660): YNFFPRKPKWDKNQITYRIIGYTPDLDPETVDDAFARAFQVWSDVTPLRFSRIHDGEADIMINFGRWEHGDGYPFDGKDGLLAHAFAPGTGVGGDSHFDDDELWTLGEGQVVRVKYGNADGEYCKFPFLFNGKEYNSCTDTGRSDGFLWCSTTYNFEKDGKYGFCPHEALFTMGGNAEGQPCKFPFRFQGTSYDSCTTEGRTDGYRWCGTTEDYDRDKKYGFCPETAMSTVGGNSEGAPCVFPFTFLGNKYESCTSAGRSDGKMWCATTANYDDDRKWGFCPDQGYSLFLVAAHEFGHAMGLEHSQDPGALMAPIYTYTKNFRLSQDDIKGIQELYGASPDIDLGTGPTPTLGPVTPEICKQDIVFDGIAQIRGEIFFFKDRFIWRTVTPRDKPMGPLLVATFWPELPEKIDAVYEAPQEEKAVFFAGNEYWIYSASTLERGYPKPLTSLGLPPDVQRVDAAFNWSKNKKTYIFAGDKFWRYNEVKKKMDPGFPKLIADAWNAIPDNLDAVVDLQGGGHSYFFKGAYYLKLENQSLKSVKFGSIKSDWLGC

[3] = biological target: T2, Human fibroblast collagenase (Homo sapiens, UniProt P03956); assay: biochemical
T2 sequence (P03956 100-469): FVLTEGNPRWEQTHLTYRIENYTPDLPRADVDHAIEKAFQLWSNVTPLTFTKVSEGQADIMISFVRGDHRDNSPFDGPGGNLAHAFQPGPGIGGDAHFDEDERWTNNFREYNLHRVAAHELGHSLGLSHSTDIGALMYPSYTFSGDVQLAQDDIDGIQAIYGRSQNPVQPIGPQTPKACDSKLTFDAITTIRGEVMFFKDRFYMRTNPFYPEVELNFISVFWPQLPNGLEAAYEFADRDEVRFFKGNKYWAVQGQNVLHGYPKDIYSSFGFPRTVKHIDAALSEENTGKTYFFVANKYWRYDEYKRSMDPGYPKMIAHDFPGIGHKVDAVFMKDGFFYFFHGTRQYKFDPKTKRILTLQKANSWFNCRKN

[4] = biological target: Stromelysin-1 (Homo sapiens, UniProt P08254); assay: biochemical
[5] = effective blood concentrations after oral administration; format: in vivo; settings: no data given

Stromelysin-1, sequence (P08254 100-477, species assumed): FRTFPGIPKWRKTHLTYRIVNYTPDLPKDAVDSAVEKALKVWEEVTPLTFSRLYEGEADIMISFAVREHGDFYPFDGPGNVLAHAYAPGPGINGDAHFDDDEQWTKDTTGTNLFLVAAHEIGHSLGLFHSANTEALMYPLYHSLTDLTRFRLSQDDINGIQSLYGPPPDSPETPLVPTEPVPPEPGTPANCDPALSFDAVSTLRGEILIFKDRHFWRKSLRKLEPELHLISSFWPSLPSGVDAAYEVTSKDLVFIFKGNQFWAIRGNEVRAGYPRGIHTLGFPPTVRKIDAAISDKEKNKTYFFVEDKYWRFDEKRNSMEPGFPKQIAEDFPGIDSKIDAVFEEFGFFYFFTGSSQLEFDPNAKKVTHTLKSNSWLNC

Row | solubility [1] | IC50 [2] | IC50 [3] | IC50 [4] | aqueous solubility (in words) ([1]; presently preferred compound) | Structure (SMILES) | effective blood concentrations (in words) [5]
1 | 40 µg/mL (≈ 113 µM) | 15 nM | 4 nM | – | – | C=CC[C@H](C(=O)NO)[C@@H](CC(C)C)C(=O)N[C@H](C(=O)NC)C(C)(C)C [Comparator 2, 2S-Allyl-N^4-(2,2-Dimethyl-1S-methylcarbamoyl-propyl)-N^4-hydroxy-3R-isobutyl-succinamide, reference compound] | –
2 | 400 µg/mL (≈ 695 µM) | 9 nM | 2 nM | 10 nM | – | COCCOCCOCCNC(=O)[C@@H](NC(=O)[C@H](CC(C)C)[C@H](CSc1cccs1)C(=O)NO)C(C)(C)C [Example 9, N^4 -Hydroxy-2R-isobutyl-N^1-(1S{2-[2-(2-methoxy-ethoxy)-ethoxy]-ethylcarbamoyl}-2,2-dimethyl-propyl)-3S-(thiophen-2-yl-sulfanylmethyl)-succinamide] | –
3 | ≥ 29600 µg/mL | 15 nM | 10 nM | 60 nM | – | COCCOCOCCNC(=O)[C@@H](NC(=O)[C@H](CC(C)C)[C@H](O)C(=O)NO)C(C)(C)C [Example 1, 2S, N^1 -Dihydroxy-3R-isobutyl-N^4 -{1S-[2-(2-methoxy-ethoxymethoxy)-ethylcarbamoyl]-2,2-dimethyl-propyl}-succinamide] | –
4 | 400 µg/mL (≈ 848 µM) | 30 nM | 20 nM | 50 nM | – | C=CC[C@H](C(=O)NO)[C@@H](CC(C)C)C(=O)N[C@H](C(=O)NCC(C)(COC)COC)C(C)(C)C [Example 6, 2S-Allyl-N^4 -{1S-[2,2-di-(methoxymethyl)-propylcarbamoyl}-2,2-dimethyl-propyl]-N^1-hydroxy-3R-isobutyl-succinamide] | –
5 | 180 µg/mL (≈ 406 µM) | 20 nM | 1 nM | 40 nM | – | CNC(=O)[C@@H](NC(=O)[C@H](CC(C)C)C(CSc1cccs1)C(=O)NO)C(C)(C)C (stereo partly drawn) [Comparator 3, N^1-(2,2-Dimethyl-1S-methylcarbamoyl-propyl)-N^4-hydroxy-2R -isobutyl-3-(thiophen-2-yl-sulfanylmethyl)-succinamide, reference compound] | –
6 | 7700 µg/mL (≈ 23200 µM) | – | – | – | – | CNC(=O)[C@@H](NC(=O)[C@H](CC(C)C)[C@H](O)C(=O)NO)C(C)(C)C [Comparator 1, N^4-(2,2-Dimethyl-1S-methylcarbamoyl-propyl)-2S, N^1-dihydroxy-3R -isobutyl-succinamide, reference compound] | –
7 | 4700 µg/mL (≈ 10600 µM) | 7 nM | 1 nM | 40 nM | good aqueous solubility | C=CC[C@H](C(=O)NO)[C@@H](CC(C)C)C(=O)N[C@H](C(=O)NCCOCCOC)C(C)(C)C [Example 4, 2S-Allyl-N^1-hydroxy-3R-isobutyl-N^4 -{1S-[2-(2-methoxy-ethoxy)-ethylcarbamoyl]-2,2-dimethyl-propyl}-succinamid] | high and prolonged effective blood concentrations
